Target: T1, human 5-HT2C receptor (Homo sapiens, UniProt P28335)
T1 construct: expressed in transfected cells; host or cells: U2OS, stably transfected
T1 sequence (P28335 33-458): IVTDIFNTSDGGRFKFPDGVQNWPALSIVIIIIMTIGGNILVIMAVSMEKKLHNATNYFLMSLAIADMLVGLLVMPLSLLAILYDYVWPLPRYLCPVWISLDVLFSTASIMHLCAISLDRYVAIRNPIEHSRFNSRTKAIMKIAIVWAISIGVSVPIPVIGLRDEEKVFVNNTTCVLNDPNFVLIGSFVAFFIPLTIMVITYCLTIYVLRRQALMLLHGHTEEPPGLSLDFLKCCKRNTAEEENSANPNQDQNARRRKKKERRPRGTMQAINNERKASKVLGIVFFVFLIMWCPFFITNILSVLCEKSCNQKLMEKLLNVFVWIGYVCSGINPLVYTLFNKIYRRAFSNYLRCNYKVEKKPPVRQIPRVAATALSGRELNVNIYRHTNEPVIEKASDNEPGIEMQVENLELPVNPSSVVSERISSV
Assay: cell-based

[1] = FLIPR calcium mobilization, U2OS cells
[2] = calcium mobilization, U2OS cells (Table 30)
[3] = relative to maximum response of serotonin (Table 30)

Row | SMILES | EC50 [1] [nM] | Emax (% of serotonin) [1] | EC50 [2] [nM] | Emax (% of serotonin) [3]
1 | COc1ccc2[nH]cc(CCN3CC[C@H](OC(F)F)C3)c2c1 [(S) I-67, (S)-3-(2-(3-(Difluoromethoxy)pyrrolidin-1-yl)ethyl)-5-methoxy-1H-indole] | 2690 | 75.3 % of serotonin | – | –
2 | [2H]C([2H])([2H])N(CCc1c[nH]c2ccc(SC)cc12)C([2H])([2H])[2H] [Compound I-1, N,N-Bis(methyl-d3)-2-(5-(methylthio)-1H-indol-3-yl)ethan-1-amine] | – | – | 2.37 | 98.89 % of serotonin
3 | CCN(C)CCc1c[nH]c2ccc(SC)cc12 [Compound I-13, N-Ethyl-N-methyl-2-(5-(methylthio)-1H-indol-3-yl)ethan-1-amine] | – | – | 2.89 | 92.77 % of serotonin
